Results published in patent US20260356851A1, “TRICYCLIC COMPOUNDS AND USES THEREOF” (HUTCHMED LIMITED, priority 2023, published 2026).

Columns and labels:
Type in all cases: cell-based
[1] = target: T1, pERK1/2 (Thr202/Tyr204), NCI-1H358 (KRAS G12C) (Homo sapiens, UniProt P01116, G12C); assay: Assay of intracellular pERK1/2 (Thr202/Tyr204) phosphorylation in NCI-H358 cells (KRAS G12C); conditions: pERK1/2, 2 days, read-out: NCI-H358 (KRAS G12C) IC50
T1 construct: pERK1/2 HTRF read-out
Procedure, shortened: (§1)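 Cells (10000-12000/well) exposed to 3-fold compound dilutions for 2 days at 37 °C, then lysed; pERK1/2 (Thr202/Tyr204) measured by HTRF with d2 and cryptate antibodies, 665/615 nm ratio.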

[2] = target: T2, pERK1/2 (Thr202/Tyr204), PANC-1 (KRAS G121D) (Homo sapiens, UniProt P01116, G12D); assay: Assay of intracellular pERK1/2 (Thr202/Tyr204) phosphorylation in PANC-1 cells (KRAS G12D); conditions: pERK1/2, 2 days, read-out: PANC-1 (KRAS G12D) IC50
T2 construct: pERK1/2 HTRF read-out
T2 sequence (P01116 1-188 isoform P01116-2 G12D): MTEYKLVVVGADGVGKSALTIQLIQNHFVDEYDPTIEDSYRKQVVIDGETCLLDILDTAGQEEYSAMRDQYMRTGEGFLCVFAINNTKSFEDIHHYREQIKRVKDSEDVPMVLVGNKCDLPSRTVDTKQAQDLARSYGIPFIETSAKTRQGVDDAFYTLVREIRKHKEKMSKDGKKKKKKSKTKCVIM
Procedure, shortened: as §1

[3] = target: T3, pERK1/2 (Thr202/Tyr204), NCI-1H441 (KRAS G12V) (Homo sapiens, UniProt P01116, G12V); assay: Assay of intracellular pERK1/2 (Thr202/Tyr204) phosphorylation in NCI-H441 cells (KRAS G12V); conditions: pERK1/2, 2 days, read-out: NCI-H441 (KRAS G12V) IC50
T3 construct: pERK1/2 HTRF read-out
T3 sequence (P01116 1-188 isoform P01116-2 G12V): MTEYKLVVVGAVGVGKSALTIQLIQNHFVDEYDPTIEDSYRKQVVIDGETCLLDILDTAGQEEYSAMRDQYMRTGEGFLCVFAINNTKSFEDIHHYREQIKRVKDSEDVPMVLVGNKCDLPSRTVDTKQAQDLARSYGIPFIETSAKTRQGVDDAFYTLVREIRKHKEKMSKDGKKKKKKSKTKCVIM
Procedure, shortened: as §1

T1 sequence (P01116 1-188 isoform P01116-2 G12C): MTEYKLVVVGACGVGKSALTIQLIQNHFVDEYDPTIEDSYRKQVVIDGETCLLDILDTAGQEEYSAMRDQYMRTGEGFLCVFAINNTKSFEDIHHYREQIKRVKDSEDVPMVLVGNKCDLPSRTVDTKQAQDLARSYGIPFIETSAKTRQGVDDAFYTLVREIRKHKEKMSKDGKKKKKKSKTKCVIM

| Compound | IC50 [1] [nM] | IC50 [2] [nM] | IC50 [3] [nM] |
| --- | --- | --- | --- |
| Cc1c(C(F)(F)F)c(-c2nc3c4c(nc(OCC5(CN(C)C6CC6)CC5)nc4c2F)N(C(C)c2cccnc2N)[C@@H](C)CO3)c2cn[nH]c2c1F (stereo partly drawn) [Compound 395] | 1 | 21 | 4 |
| CC(c1cccnc1N)N1c2nc(OC[C@@]34CCCN3C[C@H](F)C4)nc3cc(-c4c5ccccc5cc5[nH]nc(C6CC6)c45)nc(c23)OC[C@@H]1C (stereo partly drawn) [Compound 403] | 112 | 997 | 308 |
| Cc1c(F)c(N)cc(-c2nc3c4c(nc(OC[C@@]56CCCN5C[C@H](F)C6)nc4c2F)N(C(C)c2cn(C)nc2N)CCO3)c1C(F)(F)F (single isomer, unassigned) [Compound 261, 4-((R or S)-1-(5-(5-amino-4-fluoro-3-methyl-2-(trifluoromethyl)phenyl)-4-fluoro-2-(((2R,7aS)-2-fluorotetrahydro-1H-pyrrolizin-7a(5H)-yl)methoxy)-8,9-dihydro-10H-7-oxa-1,3,6,10-tetraazacyclohepta[de]naphthalen-10-yl)ethyl)-1-methyl-1H-pyrazol-3-amine] | > 100 | > 100 | > 100 |
| Cc1cc2[nH]ncc2c(-c2nc3c4c(nc(OC[C@@H]5CCN5CC(F)F)nc4c2F)N(C(C)c2cccnc2N)CCO3)c1C (stereo partly drawn) [Compound 14] | 19 | > 1000 | 36 |
| CC(c1cccnc1N)N1c2nc(OC[C@@]34CCCN3C[C@H](F)C4)nc3c(F)c(-c4c5c(cc6[nH]ncc46)CC=C5F)nc(c23)OC[C@@H]1C (stereo partly drawn) [Compound 374] | 0.6 | 1 | 2 |
| CC(c1cccnc1N)N1CCOc2nc(-c3cc(O)cc4ccc(F)c(F)c34)c(F)c3nc(OC[C@@H]4CC(F)(F)CN4C)nc1c23 (stereo partly drawn) [Compound 46] | 4 | 287 | 5 |
| Cc1c(F)c(N)cc(-c2nc3c4c(nc(OC[C@]56CCCN5C[C@H](F)C6)nc4c2F)N(C(C)c2cccnc2N)CCO3)c1C(F)(F)F (stereo partly drawn) [Compound 164] | 0.2 | 3 | 0.3 |
| CC(c1cccnc1N)N1CCOc2nc(-c3cc(N)ccc3C(F)(F)F)c(F)c3nc(OC[C@@H]4CCCN4C)nc1c23 (stereo partly drawn) [Compound 36] | 6 | 286 | 25 |
| CC(c1cccnc1N)N1CCOc2nc(-c3cc(O)cc(F)c3C3CC3)c(F)c3nc(OC[C@@H]4CC(F)(F)CN4C)nc1c23 (stereo partly drawn) [Compound 45] | 38 | > 1000 | 53 |
| Cc1c(F)c(N)cc(-c2nc3c4c(nc(OC[C@@H]5C[C@@H](F)CN5C)nc4c2F)N(C(C)c2cccnc2N)[C@@H](C)CO3)c1C(F)(F)F (single isomer, unassigned) [Compound 277, 3-((R or S)-1-((S)-5-(5-amino-4-fluoro-3-methyl-2-(trifluoromethyl)phenyl)-4-fluoro-2-(((2S,4R)-4-fluoro-1-methylpyrrolidin-2-yl)methoxy)-9-methyl-8,9-dihydro-10H-7-oxa-1,3,6,10-tetraazacyclohepta[de]naphthalen-10-yl)ethyl)pyridin-2-amine] | 93 | > 100 | > 100 |
| CC(c1cccnc1N)N1c2nc(OC[C@@]34CCCN3C[C@H](F)C4)nc3c(F)c(-c4c5cn[nH]c5cc5cccc(F)c45)nc(c23)OC[C@@H]1C (stereo partly drawn) [Compound 362] | 0.2 | 0.4 | 0.3 |
| Cc1c(F)c(N)cc(-c2nc3c4c(nc(OC[C@@]56CCCN5C[C@H](F)C6)nc4c2F)N(C(C)c2cccnc2N)CCO3)c1C(F)(F)F (stereo partly drawn) [Compound 120] | 0.3 | 1 | 0.4 |
| [2H][C@]1(F)CN2CCC[C@@]2(COc2nc3c4c(nc(-c5cc(N)c(F)c(C)c5C(F)(F)F)c(F)c4n2)OCCN3C(C)c2cccnc2N)C1 (single isomer, unassigned) [Compound 170, (*)3-(1-(5-(5-amino-4-fluoro-3-methyl-2-(trifluoromethyl)phenyl)-4-fluoro-2-(((2S or 2R,7aS)-2-fluorotetrahydro-1H-pyrrolizin-7a(5H)-yl-2-d)methoxy)-8,9-dihydro-1OH-7-oxa-1,3,6,10-tetraazacyclohepta[de]naphthalen-10-yl)ethyl)pyridin-2-amine] | 0.2 | 2 | 0.5 |
| Cc1c(C(F)(F)F)c(-c2nc3c4c(nc(OC[C@@]56CCCN5C[C@H](F)C6)nc4c2F)N(C(C)c2cccnc2N)[C@@H](C)CO3)c2c(C)n[nH]c2c1F (stereo partly drawn) [Compound 380] | 1 | 1 | 2 |
| Cc1c(F)c(N)cc(-c2nc3c4c(nc(OC[C@@H]5C[C@@H](F)CN5C)nc4c2F)N(C(C)c2cccnc2N)CCO3)c1C(F)(F)F (stereo partly drawn) [Compound 185] | 0.3 | 13 | 1 |
| Cc1c(C(F)(F)F)c(-c2nc3c4c(nc(OC[C@@]56CCCN5C[C@H](F)C6)nc4c2F)N(C(C)c2cc(F)cnc2N)[C@@H](C)CO3)c2cn[nH]c2c1F (stereo partly drawn) [Compound 368] | 0.3 | 0.6 | 0.3 |
| Cc1c(F)c(N)cc(-c2nc3c4c(nc(OC[C@@]56CCCN5C/C(=C\F)C6)nc4c2F)N(C(C)c2cccnc2N)CCO3)c1C(F)(F)F (stereo partly drawn) [Compound 230] | 0.1 | 1 | 0.5 |
| Cc1c(F)c(N)cc(-c2nc3c4c(nc(OC[C@@]56CCCN5CC(F)(F)C6)nc4c2F)N(C(C)c2cccnc2N)CCO3)c1C(F)(F)F (stereo partly drawn) [Compound 171] | 0.5 | 27 | 2 |
| CC(c1cccnc1N)N1CCOc2nc(-c3cc(N)cc(Cl)c3C(F)(F)F)c(F)c3nc(OC[C@@H]4CCCN4C)nc1c23 (single isomer, unassigned) [Compound 98, 3-((R or S)-1-(5-(5-amino-3-chloro-2-(trifluoromethyl)phenyl)-4-fluoro-2-(((S)-1-methylpyrrolidin-2-yl)methoxy)-8,9-dihydro-10H-7-oxa-1,3,6,10-tetraazacyclohepta[de]naphthalen-10-yl)ethyl)pyridin-2-amine] | 0.3 | 10 | 0.5 |
| [2H]C1([2H])CC[C@@]2(COc3nc4c5c(nc(-c6cc(N)c(F)c(C)c6C(F)(F)F)c(F)c5n3)OCCN4C(C)c3cccnc3N)C[C@@]([2H])(F)CN12 (stereo partly drawn) [Compound 148] | 0.2 | 1 | 0.3 |
| CC(c1cccnc1N)N1CCOc2nc(-c3cc(N)c(F)c(Cl)c3C(F)(F)F)c(F)c3nc(OCC45CC(F)CN4CC(F)C5)nc1c23 (single isomer, unassigned; diastereomer 2) [Compound 246, (*)3-(1-(5-(5-amino-3-chloro-4-fluoro-2-(trifluoromethyl)phenyl)-2-(((2R or 2S,6R or 6S)-2,6-difluorotetrahydro-1H-pyrrolizin-7a(5H)-yl)methoxy)-4-fluoro-8,9-dihydro-10H-7-oxa-1,3,6,10-tetraazacyclohepta[de]naphthalen-10-yl)ethyl)pyridin-2-amine (diastereomer 2)] | 0.4 | 63 | 2 |
| CC(c1cccnc1N)N1CCOc2nc(-c3cc(N)cc(Cl)c3C(F)(F)F)c(F)c3nc(OC[C@@H]4CCCN4C)nc1c23 (stereo partly drawn) [Compound 64] | 0.6 | 23 | 2 |
